Test results reported in paper PMC6874683, “Pyrrothiogatain acts as an inhibitor of GATA family proteins and inhibits Th2 cell differentiation in vitro” (Scientific Reports, 2019).
Several values for one entry are separate records, joined by “and”; a condition that tells them apart may be missing. Identical values can stand only once.

Key:
[1] = target: T1, GATA3-SOX4 interaction (Homo sapiens, UniProt P23771); test: AlphaScreen binding assay of GATA3 and SOX4; settings: pyrrothiogatain 0 to 100 µM
T1 construct: we synthesized the recombinant full-length GATA3 protein with an N-terminal FLAG tag using the wheat cell-free system; made in house; host or cells: wheat cell-free protein synthesis system (WEPRO1240 kit), BirA added for biotinylation
Method: The GATA3 protein has been reported to directly interact with SOX4[22]. We next investigated whether pyrrothiogatain interrupted the interaction between GATA3 and SOX4. […] Interaction between biotin-labelled SOX4 and FLAG-GATA3 was analysed by the AlphaScreen system (Fig. 4B).
Figure 4 Pyrrothiogatain inhibits the GATA3–SOX4 interaction. (A) Immunoblot analysis of biotin fused recombinant SOX4 (Biotin-SOX4) synthesized by the wheat cell-free system. The whole translational mixture (W) and the supernatant (S) were analysed using an anti-biotin antibody. (B) A schematic diagram of the binding assay to detect the direct binding between GATA3 and SOX4. When FLAG-tagged GATA3 binds with biotin fused SOX4, AlphaScreen beads generate a luminescent signal. (C) The binding assay of GATA3 and SOX4. The luminescence signals were detected by AlphaScreen technology. FLAG-DHFR was used as a control. (D) The inhibition assay of the binding of GATA3 and SOX4 in the presence of various concentrations of pyrrothiogatain (0 to 100 µM). The binding activity was calculated from the AlphaScreen signal. (E) The binding of recombinant GATA3 with SOX4 in the presence of pyrrothiogatain (0 to 100 µM) was assessed by immunoprecipitation assay. […] In (C,D), all data are expressed as individual points of three independent experiments with error bars indicating standard deviation.

[2] = target: T2, GATA3 (Homo sapiens, UniProt P23771); test: Electrophoretic mobility shift assay (EMSA), GATA3; assay type: binding; settings: 50 to 100 µM
T2 construct: we synthesized the recombinant full-length GATA3 protein with an N-terminal FLAG tag using the wheat cell-free system; made in house; host or cells: wheat cell-free protein synthesis system (WEPRO1240 kit)
Method: Electrophoretic mobility shift assays were performed as described previously. In brief, four GATA family proteins (GATA2 to GATA5) were incubated with a ^32P-labelled GATA-binding DNA probe for 20 min at 4 °C in the presence or absence of pyrrothiogatain (0 to 100 µM). The DNA-protein complex was separated from free oligonucleotides on 4% polyacrylamide gels, and then, the ^32P-labelled DNA probes were detected using the Typhoon FLA 7000 (GE Healthcare).

[3] = target: T3, GATA2 (Homo sapiens, UniProt P23769); test: AlphaScreen DNA-binding assay, GATA2; settings: pyrrothiogatain 0 to 200 µM
T3 construct: we tried to synthesize their full-length proteins using the cell-free system; made in house; host or cells: wheat cell-free protein synthesis system (WEPRO1240 kit)
T3 sequence (P23769 1-480): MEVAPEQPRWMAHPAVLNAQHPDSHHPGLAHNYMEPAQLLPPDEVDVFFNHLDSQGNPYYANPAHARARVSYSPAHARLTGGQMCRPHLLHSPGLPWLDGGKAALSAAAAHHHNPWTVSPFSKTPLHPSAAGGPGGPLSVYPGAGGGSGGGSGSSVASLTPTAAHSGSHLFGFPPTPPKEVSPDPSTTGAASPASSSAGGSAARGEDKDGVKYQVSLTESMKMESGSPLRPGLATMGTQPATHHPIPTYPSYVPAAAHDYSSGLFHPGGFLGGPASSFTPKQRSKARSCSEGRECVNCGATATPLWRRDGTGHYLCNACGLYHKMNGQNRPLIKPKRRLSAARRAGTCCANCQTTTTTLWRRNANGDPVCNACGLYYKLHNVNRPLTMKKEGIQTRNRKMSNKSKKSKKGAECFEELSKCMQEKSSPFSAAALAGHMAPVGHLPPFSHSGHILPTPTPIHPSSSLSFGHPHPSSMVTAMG
Method: For the protein-DNA binding assay on a 384-well AlphaPlate (Perkin Elmer), 10 μL of bait protein mixture containing 1 µL FLAG-tagged protein in AlphaScreen Buffer (100 mM Tris-HCl (pH 8.0), 150 mM NaCl, 0.1% Tween 20, and 1 mg/mL BSA) and 5 µL biotinylated oligonucleotide (0–10 µM final concentration) in AlphaScreen Buffer were dispended into the AlphaPlate. Then, the plate was incubated at 26 °C for 1 h. After incubation, 10 μL of the detection mixture containing 0.4 µg/mL Anti-DYKDDDDK antibody (1E6, Wako), 0.1 μL streptavidin-conjugated AlphaScreen donor beads, and 0.1 μL protein A-conjugated AlphaScreen acceptor beads in AlphaScreen Buffer was mixed and incubated at 26 °C for 1 h, and then, the AlphaScreen signal was detected using an EnVision device with the AlphaScreen signal detection program (PerkinElmer).
For the AlphaScreen-based chemical library screening, we used a diverse set of 9,600 synthesized chemicals established by the Drug Discovery Initiative (The University of Tokyo, Tokyo, Japan). All chemical compounds (10 mM) were dissolved in DMSO, and were pre-dispensed into a 384-well Alphaplate (250 nL/well). […] The AlphaScreen signal was detected using an EnVision device with the AlphaScreen signal detection program (PerkinElmer). […]

T2 sequence (P23771 whole entry, species assumed): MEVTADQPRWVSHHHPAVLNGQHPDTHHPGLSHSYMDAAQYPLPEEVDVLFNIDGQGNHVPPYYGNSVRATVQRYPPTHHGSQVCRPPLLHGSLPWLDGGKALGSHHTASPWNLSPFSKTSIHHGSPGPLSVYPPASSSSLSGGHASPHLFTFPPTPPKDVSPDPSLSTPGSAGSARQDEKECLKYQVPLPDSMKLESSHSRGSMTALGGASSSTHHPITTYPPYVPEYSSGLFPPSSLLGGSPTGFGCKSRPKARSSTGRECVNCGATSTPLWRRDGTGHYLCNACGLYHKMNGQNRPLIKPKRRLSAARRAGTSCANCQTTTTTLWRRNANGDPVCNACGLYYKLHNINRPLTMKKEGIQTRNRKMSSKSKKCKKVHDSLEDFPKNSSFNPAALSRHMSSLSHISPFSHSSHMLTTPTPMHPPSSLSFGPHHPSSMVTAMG
T1 sequence (P23771 whole entry): as the sequence (P23771 whole entry, species assumed) above

Question: Which IC50 [1] does the source give for `Cc1ccc(C)n1-c1ccsc1C(=O)O` [Pyrrothiogatain, 3-(2,5-dimethyl-1H-pyrrol-1-yl)thiophene-2-carboxylic acid] here?
Answer: 95.2 µM

Question: What about the “Intensity of the shifted bands generated by GATA3-DNA binding” value [2] of the same molecule?
Answer: decreased

Question: And the IC50 [3]?
Answer: ~50 µM and 45 µM
